Data as given in patent publication US20090304797A1, “Process for the Preparation of Micronized Valsartan” (priority 2006, published 2009).

Assay: Particle size distribution
Format: physicochemical
Conditions: crystallized using ethyl acetate as taught in U.S. Pat. No. 5,399,578, after passing through 30 mesh sieve

Particle size distribution d10	Particle size distribution d50	Particle size distribution d90	SMILES
5.039 μ	77.29 μ	383.55 μ	CCCCC(=O)N(Cc1ccc(-c2ccccc2-c2nnn[nH]2)cc1)[C@H](C(=O)O)C(C)C [Valsartan, N-(1-Oxopentyl)-N-[[2′-(1H-tetrazol-5-yl)[1,1′-biphenyl]-4-yl]methyl]-L-valine]

Same assay, conditions: solid obtained by the process of the example

SMILES	Particle size distribution d10	Particle size distribution d50	Particle size distribution d90
CCCCC(=O)N(Cc1ccc(-c2ccccc2-c2nnn[nH]2)cc1)[C@H](C(=O)O)C(C)C [Example 1, Valsartan]	1.906 μ	4.134 μ	7.554 μ
CCCCC(=O)N(Cc1ccc(-c2ccccc2-c2nnn[nH]2)cc1)[C@H](C(=O)O)C(C)C [Example 2, Valsartan]	1.686 μ	4.420 μ	8.684 μ
CCCCC(=O)N(Cc1ccc(-c2ccccc2-c2nnn[nH]2)cc1)[C@H](C(=O)O)C(C)C [Example 3, Valsartan]	1.5421 μ	3.850 μ	7.869 μ

Results, then the molecule that gave them:

Particle size distribution d10	Particle size distribution d50	Particle size distribution d90	SMILES
2.011 μ	4.636 μ	8.611 μ	CCCCC(=O)N(Cc1ccc(-c2ccccc2-c2nnn[nH]2)cc1)[C@H](C(=O)O)C(C)C [Example 4, Valsartan]
1.869 μ	18.401 μ	202 μ	CCCCC(=O)N(Cc1ccc(-c2ccccc2-c2nnn[nH]2)cc1)[C@H](C(=O)O)C(C)C [Example 5 A, Valsartan]
0.71 μ	2.687 μ	8.42 μ	CCCCC(=O)N(Cc1ccc(-c2ccccc2-c2nnn[nH]2)cc1)[C@H](C(=O)O)C(C)C [Example 5 B, Valsartan]
